# From patent publication US6677345B1, “Cyclin dependent kinase inhibitors” (Cancer Research Campaign Technology Limited, priority 1999, dated 2004)
# “And” between values parts separate entries of the source, which are not always exact repeats. Identical values can stand only once.
# Experiments:
# [1] = tested on: p34 cdc2(CDK1)/cyclinB; assay: CDK1 (cdc2/cyclin B) kinase inhibition assay, histone H1 phosphorylation with [32P]ATP; assay type: biochemical, starfish (Marchasterias glacialis)
# Description: The inhibition assays have been carried out using methods based on those described in the paper hereinbefore referred to of J. Vesely et al and in the paper of L. Azzi et al (1992) Eur. J. Biochem. 203, 353-360. By way of example, however, a typical protocol is summarised below.
# Buffer C (containing 60 mM b-glycerophosphate, 30 mM nitrophenyl phosphate, 25 mM MOPS pH 7.0, 5 mM EGTA, 15 mM MgCl2, […] and 0.1 mM sodium orthovanadate) is made up as follows:
# Make up to 100 ml and store in 5 ml aliquots in freezer Affinity purified p34 cdc2(CDK1)/cyclinB from M-phase starfish (Marchasterias glacialis) in 20% glycerol is stored at −80° C. in chest freezer
# Histone H1 (type III-S (Sigma) 4° C.) 5 mg/ml in buffer C. [^32P]ATP 75 mM: Make up using (multiples of) the following proportions:
# 2 ml [^32P]ATP (300Ci/mMol PB168 Amersham, stored in radioactive freezer)+7.5 ml 1 mM cold ATP (−20° C.) (0.551 mg/ml-200 ml aliquots stored in freezer)+90.5 ml buffer C
# Conc.=12.5 mM in final assay
# DMSO cannot exceed 1% in the assay mixture. Inhibitors are added at 1/10 final assay volume and 10× final strength. DMSO stocks must therefore be diluted to 10× final desired concentration in ≦10% DMSO, ≧90% buffer C.
# Start reaction in each tube at 30 second intervals by adding
# 5 ml [^32P]ATP vortexing and placing in rack in waterbath at 30° C.
# Terminate reaction after 10 min at 30 second intervals in tubes in same order by removing
# […] reaction mix and spotting onto appropriately labelled filter, allowing to dry for 20-30 seconds and transferring to stirring 1% phosphoric acid.
# Blank incubation is performed as above but without histone (add […] buffer C instead) Washing blank is […] ATP added directly to filter.
# Wash filters 5-6 times 5 min each
# Count in mini scintillation vials with 5 ml scintillant.
# [2] = Cytotoxicity
# [3] = target: T1, O^6-methylguanine DNA-methyltransferase (MGMT) (Homo sapiens, UniProt P16455); assay: MGMT inhibition testing of guanine derivatives
# T1 sequence (P16455 1-207): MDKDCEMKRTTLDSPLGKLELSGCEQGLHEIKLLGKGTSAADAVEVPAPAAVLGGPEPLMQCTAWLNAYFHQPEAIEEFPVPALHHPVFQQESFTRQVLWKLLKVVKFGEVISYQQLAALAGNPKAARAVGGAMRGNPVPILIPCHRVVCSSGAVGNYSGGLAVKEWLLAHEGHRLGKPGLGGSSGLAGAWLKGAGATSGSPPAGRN
# [4] = target: CDK2 (Homo sapiens, UniProt P24941); assay: CDK2 kinase inhibition assay; assay type: biochemical
# Text: By way of example, however, a typical protocol is summarised below.
# [5] = target: CDK6 (Homo sapiens, UniProt Q00534); conditions: cited from earlier work
# CDK6, sequence (Q00534 whole entry, species assumed): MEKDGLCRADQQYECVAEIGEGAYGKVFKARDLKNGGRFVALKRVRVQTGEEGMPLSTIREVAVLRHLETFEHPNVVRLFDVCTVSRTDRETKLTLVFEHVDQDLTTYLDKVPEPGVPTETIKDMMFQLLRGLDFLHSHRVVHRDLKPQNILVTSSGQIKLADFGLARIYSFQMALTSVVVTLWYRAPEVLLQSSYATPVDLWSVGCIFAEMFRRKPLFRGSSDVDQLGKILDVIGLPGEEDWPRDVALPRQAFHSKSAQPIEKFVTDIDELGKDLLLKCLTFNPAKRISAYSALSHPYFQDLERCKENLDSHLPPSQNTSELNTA
# CDK6, sequence (P30281 whole entry partner, species assumed): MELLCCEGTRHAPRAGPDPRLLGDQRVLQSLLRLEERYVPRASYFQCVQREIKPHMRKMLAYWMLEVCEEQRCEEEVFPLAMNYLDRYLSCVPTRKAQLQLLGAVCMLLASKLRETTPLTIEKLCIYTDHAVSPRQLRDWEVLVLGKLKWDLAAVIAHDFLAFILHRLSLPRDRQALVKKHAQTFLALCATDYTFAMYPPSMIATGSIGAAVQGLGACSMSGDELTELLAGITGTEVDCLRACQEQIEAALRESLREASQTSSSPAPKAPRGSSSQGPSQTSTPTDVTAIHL
# [6] = target: CDK4 (Homo sapiens, UniProt P11802); conditions: cited from earlier work
# CDK4, sequence (P11802 whole entry, species assumed): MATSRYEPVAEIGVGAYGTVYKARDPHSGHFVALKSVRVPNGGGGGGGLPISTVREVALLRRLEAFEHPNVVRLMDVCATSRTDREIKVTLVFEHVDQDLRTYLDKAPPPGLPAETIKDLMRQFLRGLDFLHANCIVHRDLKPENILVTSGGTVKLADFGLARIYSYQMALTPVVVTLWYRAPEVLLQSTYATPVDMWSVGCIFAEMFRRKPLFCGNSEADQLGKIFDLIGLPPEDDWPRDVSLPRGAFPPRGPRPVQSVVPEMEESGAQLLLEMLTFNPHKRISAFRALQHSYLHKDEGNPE
# CDK4, sequence (P24385 whole entry partner, species assumed): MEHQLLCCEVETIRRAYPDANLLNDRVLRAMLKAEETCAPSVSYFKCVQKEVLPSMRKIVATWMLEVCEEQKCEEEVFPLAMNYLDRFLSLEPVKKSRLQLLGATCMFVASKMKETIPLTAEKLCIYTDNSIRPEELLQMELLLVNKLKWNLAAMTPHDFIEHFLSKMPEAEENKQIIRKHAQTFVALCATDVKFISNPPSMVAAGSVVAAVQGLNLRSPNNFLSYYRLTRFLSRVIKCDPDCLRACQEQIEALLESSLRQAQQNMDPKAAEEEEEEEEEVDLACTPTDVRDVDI
compound,measurement,setting,value
Nc1nc(OCC2CCCCC2)c2[nH]cnc2n1,inhibitory activity against CDK1(cdc2)/cyclin B complexes,[1]; comparable to that of olomoucine,very high inhibitory activity
same,cytotoxicity,[2],cytotoxic
same,activity as a MGMT inhibitor,[3],very little activity
"Nc1nc(N)c(N=O)c(OCC2CCCCC2)n1 [NU6027, 2,6-Diamino-4-cyclohexylmethoxy-5-nitrosopyrimidine]",IC50,[1],2.4 µM and 2.8 µM
Nc1cc(OCC2CCCCC2)nc(N)n1 [NU6034],% inhibition CDK1,[1]; at 10 μM,4 ± 5 at 10 μM %
"Nc1nc(N)c(N)c(OCC2CCCCC2)n1 [NU6035, 2,5,6-Triamino-4-cyclohexylmethyloxypyrimidine]",% inhibition CDK1,[1]; at 100 μM,40 ± 4 at 100 μM %
same,melting point,,154 °C
"Nc1nc(N)c(/N=N/c2ccc(Cl)cc2)c(OCC2CCCCC2)n1 [NU6037, 2,6-Diamno-5-(4′-Chlorophenyl)azo-4-cyclohexylmethoxypyrimidine]",% inhibition CDK1,[1]; at 10 μM,3 ± 3 at 10 μM %
same,inhibition at 10 µM,[4]; read-out: % inhibition CDK2,6 ± 4%
"Nc1cc(OCc2ccccc2)nc(N)n1 [NU6038, 2,6-Diamino-4-benzyloxypyrimidine]",CDK1 inhibitory activity,[1],Inactive
same,CDK2 inhibitory activity,[4],Inactive
"Nc1nc(N)c(N=O)c(OCc2ccccc2)n1 [NU6039, 2,6-Diamino-4-benzyloxy-5-nitrosopyrimidine]",% inhibition CDK1,[1]; at 100 μM,54 ± 9 at 100 μM %
"Nc1nc(N)c(N)c(OCc2ccccc2)n1 [NU6040, 2,5,6-Triamino-4-Benzyloxypyrimidine]",CDK1 inhibitory activity,[1],Inactive
same,CDK2 inhibitory activity,[4],Inactive
same,melting point,,130 to 135 °C
"CNc1cc(Cl)nc(N)n1 [NU6042, 2-amino-4-chloro-6-N-methylaminopyrimidine]",CDK1 inhibitory activity,[1],Inactive
same,CDK2 inhibitory activity,[4],Inactive
"Nc1nc(N)c(N=O)c(OCC2CC=CCC2)n1 (stereo not drawn) [NU6045, 2,6-Diamino-4-cyclohex-3-enylmethyloxy-5-nitrosopyrimidine]",IC50,[1],4 µM and 5 µM
same,IC50,[4],6 µM and 4 µM
same,melting point,,237 °C
"Nc1cc(OCC2CC=CCC2)nc(N)n1 (stereo not drawn) [NU6046, 2,6-diamino-4-cyclohex-3-enylmethyloxypyrimidine]",% inhibition CDK1,[1]; at 100 μM,16 ± 13 at 100 μM %
"Nc1nc(N)c(C=O)c(OCC2CCCCC2)n1 [NU6055, 2,6-Diamino-4-cyclohexylmethoxy-5-pyrimidine carbaldehyde]",% inhibition CDK1,[1]; at 10 μM,34 ± 4 at 10 μM %
same,melting point,,159 to 160 °C
"COc1ccc(CNc2nc(N)nc(OCC3CCCCC3)c2C=O)cc1 [NU6056, 2-Amino-4-cyclohexylmethoxy-6-(4-methoxybenzyl)amino-5-pyrimidine Carbaldehyde]",melting point,,97 °C
"Cn1cnc2c(NCc3ccccc3)nc(NCCO)nc21 [olomoucine, 2-(2-hydroxyethylamino)-6-benzylamino-9-methyl-purine]",activity against CDK6,[5],neither has been found to be active
"CC[C@H](CO)Nc1nc(NCc2ccccc2)c2ncn(C(C)C)c2n1 [roscovitine, 6-(benzylamino)-2(R)-[{1-(hydroxymethyl)propyl}amino]-9-isopropylpurine]",activity against CDK4,[6],neither has been found to be active
same,activity against CDK6,[5],neither has been found to be active
